Like-named read-outs stand apart in the source and are kept apart here.
Legend:
[1] = Refractive index of microemulsions; format: physicochemical; details: aqueous phase = water; oil plus low HLB surfactant (3:1, 87%), high HLB surfactant (10%), aqueous (3%)
From the text: (§1) All the microemulsions had oil plus low HLB surfactant (3:1, 87%), high HLB surfactant (10%) and aqueous (3%).

[2] = value in parentheses, from the CRC Handbook of Chemistry and Physics, 60th Edition; cited from earlier work
[3] = Viscosity of microemulsions; format: physicochemical; details: aqueous phase = water; oil plus low HLB surfactant (3:1, 87%), high HLB surfactant (10%), aqueous (3%)
From the text: as §1

[4] = value in parentheses, from the CRC Handbook of Chemistry and Physics, 60th Edition; cited from earlier work; remark: listed apart in the source

Q: For `CCCCCCCC/C=C\CCCCCCCC(=O)O` [Oleic Acid], which Refractive index [1] is on record?
A: The Refractive index was 1.4582.

Q: What about the Viscosity [2] of the same compound?
A: The Viscosity was 25.6 centiPoise.

Q: And the Viscosity [3]?
A: Its Viscosity is 23.4 centiPoise.

Q: And the Refractive index [4]?
A: The Refractive index was 1.4583.

Source: patent publication EP0597029B1, “W/O MICROEMULSIONS” (SMITHKLINE BEECHAM CORPORATION, priority 1991, dated 1993)
